Measured values from publication PMC11539244, “Relative inhibitory activities of newly developed diazabicyclooctanes, boronic acid derivatives, and penicillin-based sulfone β-lactamase inhibitors against broad-spectrum AmpC β-lactamases” (Antimicrobial Agents and Chemotherapy, 2024).
Like-named read-outs stand apart in the source and are kept apart here.

Assays:
E. coli ATCC 25922 = test: MIC by broth microdilution, E. coli ATCC 25922; assay type: cell-based; details: Escherichia coli
Description: (§1) MICs were determined in triplicate by broth microdilution (BMD) for CAZ and AMX, as well as their combinations with each β-lactamase inhibitor. CAZ, AMX, and CLA were purchased from Sigma-Aldrich (St. Louis, MO, USA). All others inhibitors (TAZ HY-W009168, AVI HY-14879, REL HY-16752, VAB HY-19930, NAC HY-109008, ZID HY-120859, TAN HY-109124, XER HY-136072, DUR HY-117974, EMT HY-103095) were purchased from MedChem Express (Luzern, Switzerland). The concentration of each β-lactamase inhibitor was chosen as the concentration used in the respective BL/BLI combination under development or commercially available, according to EUCAST or CLSI ([18], [19]). […] BMD assays were performed in cation-adjusted Mueller-Hinton (MH) broth (Bio-Rad, Marnes-la-Coquette, France) for all antibiotics or antibiotic combinations listed above, according to the EUCAST guidelines ([20]).

[1] = test system: E. coli SRT-2 (E. coli TOP10 recombinant strain); test: microbe, parasite or virus in culture; assay type: cell-based; details: Escherichia coli, read-out: MICs
Description: (§2) In order to assess the relative inhibitory activities of those BLI against AmpC β-lactamases, the corresponding blaampC genes without the original promoter sequences were amplified by PCR with specific primers, and corresponding amplicons were cloned into plasmid pUCp24, as described previously ([12], [13]). […] Cultures of E. coli TOP10 harboring recombinant plasmids and therefore producing the different AmpC tested were grown overnight at 37°C in Luria-Bertani agar medium containing amoxicillin (AMX) (50 µg/mL). The activity of the following acquired class C β-lactamases could therefore be evaluated, namely, ACC-1 (originally from Hafnia spp.), FOX-5 (from Aeromonas allosaccharophila), CMY-2 and CMY-42 (from Citrobacter spp.), DHA-1 (from Morganella morganii), ACT-7 and ACT-17 (from Enterobacter asburiae), MIR-17 (from Enterobacter roggenkampii), MOX-2 (from Aeromonas caviae), and LAT-1 (from Citrobacter portucalensis) ([5]). […] Altogether, these enzymes were chosen as representatives of clinically relevant class C β-lactamases being sources of intrinsic or acquired resistance to broad-spectrum β-lactams among most of the commonly identified Gram-negative bacteria in clinical practice.
as §1

[2] = test system: E. coli ACC-1 (E. coli TOP10 recombinant strain); test: microbe, parasite or virus in culture; assay type: cell-based; details: Escherichia coli, read-out: MICs
Description: as §2, §1

[3] = test system: E. coli DHA-1 (E. coli TOP10 recombinant strain); test: microbe, parasite or virus in culture; assay type: cell-based; details: Escherichia coli, read-out: MICs
Description: as §2, §1

[4] = test system: E. coli PDC-382 (E. coli TOP10 recombinant strain); test: microbe, parasite or virus in culture; assay type: cell-based; details: Escherichia coli, read-out: MICs
Description: as §2, §1

[5] = test system: E. coli PDC-1 (E. coli TOP10 recombinant strain); test: microbe, parasite or virus in culture; assay type: cell-based; details: Escherichia coli, read-out: MICs
Description: as §2, §1

[6] = test system: E. coli ACT-7 (E. coli TOP10 recombinant strain); test: microbe, parasite or virus in culture; assay type: cell-based; details: Escherichia coli, read-out: MICs
Description: as §2, §1

[7] = test system: E. coli Ear-1 (E. coli TOP10 recombinant strain); test: microbe, parasite or virus in culture; assay type: cell-based; details: Escherichia coli, read-out: MICs
Description: as §2, §1

[8] = test system: E. coli MIR-17 (E. coli TOP10 recombinant strain); test: microbe, parasite or virus in culture; assay type: cell-based; details: Escherichia coli, read-out: MICs
Description: as §2, §1

[9] = test system: E. coli CMY-42 (E. coli TOP10 recombinant strain); test: microbe, parasite or virus in culture; assay type: cell-based; details: Escherichia coli, read-out: MICs
Description: as §2, §1

[10] = test system: E. coli YRC-1 (E. coli TOP10 recombinant strain); test: microbe, parasite or virus in culture; assay type: cell-based; details: Escherichia coli, read-out: MICs
Description: as §2, §1

E. coli TOP10 [11] = test: microbe, parasite or virus in culture; assay type: cell-based; details: Escherichia coli
Description: as §2, §1

[12] = test system: E. coli PDC-5 (E. coli TOP10 recombinant strain); test: microbe, parasite or virus in culture; assay type: cell-based; details: Escherichia coli, read-out: MICs
Description: as §2, §1

[13] = test system: E. coli LAT-1 (E. coli TOP10 recombinant strain); test: microbe, parasite or virus in culture; assay type: cell-based; details: Escherichia coli, read-out: MICs
Description: as §2, §1

[14] = test system: E. coli MOX-2 (E. coli TOP10 recombinant strain); test: microbe, parasite or virus in culture; assay type: cell-based; details: Escherichia coli, read-out: MICs
Description: as §2, §1

[15] = test system: E. coli ACT-17 (E. coli TOP10 recombinant strain); test: microbe, parasite or virus in culture; assay type: cell-based; details: Escherichia coli, read-out: MICs
Description: as §2, §1

[16] = test system: E. coli CMY-2 (E. coli TOP10 recombinant strain); test: microbe, parasite or virus in culture; assay type: cell-based; details: Escherichia coli, read-out: MICs
Description: as §2, §1

[17] = test system: E. coli FOX-5 (E. coli TOP10 recombinant strain); test: microbe, parasite or virus in culture; assay type: cell-based; details: Escherichia coli, read-out: MICs
Description: as §2, §1

[18] = test system: E. coli ADC-50 (E. coli TOP10 recombinant strain); test: microbe, parasite or virus in culture; assay type: cell-based, Escherichia coli; details: Escherichia coli, read-out: MICs
Description: as §2, §1

[19] = test system: Escherichia coli NCTC 13353 (CTX-M-15, OXA-1); test: QC susceptibility testing (MIC), E. coli NCTC 13353; assay type: cell-based; details: NCTC13353, read-out: Minimal Inhibitory Concentrations
Description: as §1
(§3) Table S1. Susc eptibility testing of al l QC strains used in the study.
(§4) Mi n ima l In hibitory Concentrations (µg / ml) a […]

[20] = test system: Pseudomonas aeruginosa ATCC 27853 (inducible AmpC); test: microbe, parasite or virus in culture; assay type: cell-based; details: ATCC27853, QC strain P. aeruginosa ATCC 27853, broth microdilution, Table S1, read-out: Minimal Inhibitory Concentrations
Description: as §1, §3, §4

[21] = test system: Klebsiella pneumoniae ATCC 700603 (SHV-18, OXA-2); test: microbe, parasite or virus in culture; assay type: cell-based; details: ATCC700603, read-out: Minimal Inhibitory Concentrations
Description: as §1, §3, §4

MOX-2 = MOX-2 (Aeromonas caviae, UniProt Q9L3G2); test: IC50 of β-lactamase inhibitors, crude extract, MOX-2; assay type: biochemical
Chain of MOX-2 (Q9L3G2 entry or part of it): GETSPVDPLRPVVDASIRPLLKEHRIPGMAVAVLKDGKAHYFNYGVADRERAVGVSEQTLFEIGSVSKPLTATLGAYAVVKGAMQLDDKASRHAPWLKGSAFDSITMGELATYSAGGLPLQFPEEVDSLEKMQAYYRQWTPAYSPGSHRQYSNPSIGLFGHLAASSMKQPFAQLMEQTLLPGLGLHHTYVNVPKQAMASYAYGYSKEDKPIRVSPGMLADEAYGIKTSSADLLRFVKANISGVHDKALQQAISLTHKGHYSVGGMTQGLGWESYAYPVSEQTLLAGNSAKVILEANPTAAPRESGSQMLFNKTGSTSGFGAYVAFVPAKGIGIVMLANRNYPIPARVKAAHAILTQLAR

ACT-17 = ACT-17 (Enterobacter asburiae, UniProt P05364); assay type: biochemical; details: crude extract of E. coli TOP10 recombinant strain, mean of triplicate
Chain of ACT-17 (P05364 21-381): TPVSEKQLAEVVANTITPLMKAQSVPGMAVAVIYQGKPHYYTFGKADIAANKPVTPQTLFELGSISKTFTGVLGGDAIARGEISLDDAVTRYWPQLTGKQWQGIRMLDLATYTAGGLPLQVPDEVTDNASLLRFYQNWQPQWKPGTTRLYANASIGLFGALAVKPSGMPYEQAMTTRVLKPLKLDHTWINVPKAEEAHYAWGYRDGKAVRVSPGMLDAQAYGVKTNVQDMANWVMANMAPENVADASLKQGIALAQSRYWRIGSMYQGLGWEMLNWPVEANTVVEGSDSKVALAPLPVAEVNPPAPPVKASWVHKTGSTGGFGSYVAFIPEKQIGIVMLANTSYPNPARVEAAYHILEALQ

LAT-1 = LAT-1 (Citrobacter portucalensis, UniProt Q48443); test: biochemical
Chain of LAT-1 (Q48443 entry or part of it): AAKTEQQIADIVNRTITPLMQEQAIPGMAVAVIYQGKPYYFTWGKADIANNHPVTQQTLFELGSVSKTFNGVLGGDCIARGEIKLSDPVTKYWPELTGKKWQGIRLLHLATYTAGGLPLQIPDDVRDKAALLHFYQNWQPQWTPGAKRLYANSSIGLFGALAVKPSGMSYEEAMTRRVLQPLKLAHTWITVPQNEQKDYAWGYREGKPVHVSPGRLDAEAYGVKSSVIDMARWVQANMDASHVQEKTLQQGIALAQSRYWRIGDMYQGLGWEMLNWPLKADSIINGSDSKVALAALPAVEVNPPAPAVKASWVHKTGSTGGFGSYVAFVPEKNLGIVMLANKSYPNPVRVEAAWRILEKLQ

ACT-7 = ACT-7 (Enterobacter asburiae, UniProt B6V6L3); test: biochemical
Chain of ACT-7 (B6V6L3 entry or part of it): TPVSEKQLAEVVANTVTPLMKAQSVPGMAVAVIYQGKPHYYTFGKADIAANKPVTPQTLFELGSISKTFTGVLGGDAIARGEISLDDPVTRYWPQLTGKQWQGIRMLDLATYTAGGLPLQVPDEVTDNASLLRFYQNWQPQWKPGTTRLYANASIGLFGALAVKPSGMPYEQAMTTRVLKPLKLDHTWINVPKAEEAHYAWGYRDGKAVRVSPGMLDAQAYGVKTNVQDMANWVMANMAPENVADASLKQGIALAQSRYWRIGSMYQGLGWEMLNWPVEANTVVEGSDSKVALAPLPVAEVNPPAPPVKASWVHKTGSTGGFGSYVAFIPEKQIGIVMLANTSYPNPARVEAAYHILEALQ

PDC-1 = target: T1, PDC-1 (Pseudomonas aeruginosa, UniProt P24735); test: biochemical; design: species or system P. aeruginosa
T1 construct: made in house; host or cells: E. coli TOP10, plasmid pUCp24
T1 sequence (P24735 27-397): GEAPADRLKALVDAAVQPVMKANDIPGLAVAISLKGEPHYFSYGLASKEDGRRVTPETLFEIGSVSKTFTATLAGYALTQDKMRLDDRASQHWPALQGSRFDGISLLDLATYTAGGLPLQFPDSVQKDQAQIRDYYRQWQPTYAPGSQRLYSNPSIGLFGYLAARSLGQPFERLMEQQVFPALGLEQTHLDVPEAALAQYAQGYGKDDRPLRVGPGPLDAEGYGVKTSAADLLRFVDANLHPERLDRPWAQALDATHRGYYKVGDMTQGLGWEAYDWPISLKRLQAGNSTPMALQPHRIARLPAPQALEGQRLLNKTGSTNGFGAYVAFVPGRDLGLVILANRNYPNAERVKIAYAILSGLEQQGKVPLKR

ADC-50 = ADC-50 (Acinetobacter baumannii, UniProt Q6DRA1); test: IC50 of β-lactamase inhibitors, crude extract, ADC-50; assay type: biochemical, A. baumannii; details: ADC-50, crude extract of E. coli TOP10 recombinant strain, mean of triplicate
ACC-1 = ACC-1 (Hafnia alvei, UniProt Q9XB24); test: IC50 of β-lactamase inhibitors, crude extract, ACC-1; assay type: biochemical
Chain of ACC-1 (Q9XB24 entry or part of it): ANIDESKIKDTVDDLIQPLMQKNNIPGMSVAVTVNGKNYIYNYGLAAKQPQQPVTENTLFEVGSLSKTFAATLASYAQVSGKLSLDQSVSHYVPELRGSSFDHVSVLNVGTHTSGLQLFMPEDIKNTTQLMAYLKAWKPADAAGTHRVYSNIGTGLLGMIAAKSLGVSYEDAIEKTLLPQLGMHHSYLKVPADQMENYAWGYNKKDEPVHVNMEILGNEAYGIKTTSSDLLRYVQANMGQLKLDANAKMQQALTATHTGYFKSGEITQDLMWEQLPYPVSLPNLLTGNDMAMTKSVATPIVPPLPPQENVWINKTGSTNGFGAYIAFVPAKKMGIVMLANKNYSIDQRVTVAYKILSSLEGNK

CMY-2 = target: T2, CMY-2 (Klebsiella pneumoniae, UniProt Q48434); test: biochemical; design: species or system Citrobacter spp.
T2 construct: made in house; host or cells: E. coli TOP10, plasmid pUCp24
T2 sequence (Q48434 21-381): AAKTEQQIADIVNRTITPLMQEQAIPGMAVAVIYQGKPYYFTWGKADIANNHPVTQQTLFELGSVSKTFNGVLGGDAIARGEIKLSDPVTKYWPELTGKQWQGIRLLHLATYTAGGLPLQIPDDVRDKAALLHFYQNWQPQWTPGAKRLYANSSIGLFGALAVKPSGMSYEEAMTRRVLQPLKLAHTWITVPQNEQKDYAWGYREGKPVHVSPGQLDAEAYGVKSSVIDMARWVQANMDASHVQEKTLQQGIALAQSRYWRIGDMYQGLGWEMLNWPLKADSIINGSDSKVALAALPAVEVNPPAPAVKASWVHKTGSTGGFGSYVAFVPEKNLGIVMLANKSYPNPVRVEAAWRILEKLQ

SRT-1 = SRT-1 (Serratia marcescens, UniProt P18539); test: IC50 of β-lactamase inhibitors, crude extract, SRT-1; assay type: biochemical; details: crude extract of E. coli TOP10 recombinant strain, mean of triplicate
Chain of SRT-1 (P18539 22-376): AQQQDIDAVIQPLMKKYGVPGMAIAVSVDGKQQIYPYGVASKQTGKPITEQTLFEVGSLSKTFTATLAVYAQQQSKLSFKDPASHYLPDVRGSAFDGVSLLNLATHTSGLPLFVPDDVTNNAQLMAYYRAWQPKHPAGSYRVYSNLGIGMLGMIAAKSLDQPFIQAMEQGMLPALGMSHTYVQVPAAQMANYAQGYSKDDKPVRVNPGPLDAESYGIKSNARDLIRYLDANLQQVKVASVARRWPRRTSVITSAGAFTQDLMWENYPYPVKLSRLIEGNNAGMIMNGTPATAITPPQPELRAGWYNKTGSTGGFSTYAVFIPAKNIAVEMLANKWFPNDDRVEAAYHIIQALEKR

CMY-42 = target: T3, CMY-42 (Klebsiella pneumoniae, UniProt Q48434, V231S); test: biochemical; design: species or system Citrobacter spp.
T3 construct: made in house; host or cells: E. coli TOP10, plasmid pUCp24

MIR-17 = test: IC50 of β-lactamase inhibitors, crude extract, MIR-17; assay type: biochemical, Enterobacter roggenkampii; details: crude extract of E. coli TOP10 recombinant strain, mean of triplicate
PDC-382 = PDC-382 (Pseudomonas aeruginosa, UniProt P24735, T96I); test: biochemical; design: species or system P. aeruginosa
Chain of PDC-382 (P24735 27-397 T96I): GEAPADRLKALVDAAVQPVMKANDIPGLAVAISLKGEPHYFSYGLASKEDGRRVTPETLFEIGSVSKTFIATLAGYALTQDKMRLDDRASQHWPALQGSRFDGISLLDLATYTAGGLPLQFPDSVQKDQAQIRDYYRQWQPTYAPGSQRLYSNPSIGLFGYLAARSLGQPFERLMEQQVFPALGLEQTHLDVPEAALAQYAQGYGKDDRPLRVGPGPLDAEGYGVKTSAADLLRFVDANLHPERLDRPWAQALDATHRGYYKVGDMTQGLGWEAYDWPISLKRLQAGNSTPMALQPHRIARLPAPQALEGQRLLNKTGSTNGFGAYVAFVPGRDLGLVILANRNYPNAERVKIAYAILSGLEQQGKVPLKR

DHA-1 = DHA-1 (Morganella morganii, UniProt P94958); test: IC50 of β-lactamase inhibitors, crude extract, DHA-1; assay type: biochemical
E. coli TOP10 [22] = test system: E. coli TOP10; design: method as in PMID 38727224; details: inhibitor alone, previous study; cited from earlier work
PDC-5 = target: T4, PDC-5 (Pseudomonas aeruginosa, UniProt P24735, R79Q/T105A); test: biochemical; design: species or system P. aeruginosa
T4 construct: made in house; host or cells: E. coli TOP10, plasmid pUCp24
T4 sequence (P24735 27-397 R79Q/T105A): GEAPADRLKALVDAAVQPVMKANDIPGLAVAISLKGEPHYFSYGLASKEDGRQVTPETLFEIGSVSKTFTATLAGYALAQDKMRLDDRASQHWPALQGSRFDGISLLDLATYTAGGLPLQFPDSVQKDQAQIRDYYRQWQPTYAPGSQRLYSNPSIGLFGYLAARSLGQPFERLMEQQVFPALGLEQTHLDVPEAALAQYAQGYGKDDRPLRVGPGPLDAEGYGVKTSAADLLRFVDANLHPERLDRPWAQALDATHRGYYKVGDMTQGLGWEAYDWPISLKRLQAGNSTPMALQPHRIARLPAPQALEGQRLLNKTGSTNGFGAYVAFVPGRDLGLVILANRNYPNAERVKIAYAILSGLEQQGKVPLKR

FOX-5 = FOX-5 (Aeromonas allosaccharophila, UniProt Q9F4K3); test: IC50 of β-lactamase inhibitors, crude extract, FOX-5; assay type: biochemical
Chain of FOX-5 (Q9F4K3 entry or part of it): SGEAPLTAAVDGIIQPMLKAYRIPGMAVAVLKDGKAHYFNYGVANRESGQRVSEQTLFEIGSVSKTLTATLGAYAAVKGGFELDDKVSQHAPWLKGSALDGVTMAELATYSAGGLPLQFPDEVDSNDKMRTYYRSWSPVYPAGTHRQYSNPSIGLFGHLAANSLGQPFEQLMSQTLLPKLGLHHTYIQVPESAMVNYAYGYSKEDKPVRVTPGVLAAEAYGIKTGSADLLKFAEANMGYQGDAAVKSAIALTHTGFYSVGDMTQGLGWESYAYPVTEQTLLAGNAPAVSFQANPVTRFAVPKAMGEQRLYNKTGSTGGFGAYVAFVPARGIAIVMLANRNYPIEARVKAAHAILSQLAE

Ear-1 = Ear-1 (Klebsiella aerogenes, UniProt A0A0H3FRQ3); test: IC50 of β-lactamase inhibitors, crude extract, Ear-1; assay type: biochemical
Chain of Ear-1 (A0A0H3FRQ3 entry or part of it): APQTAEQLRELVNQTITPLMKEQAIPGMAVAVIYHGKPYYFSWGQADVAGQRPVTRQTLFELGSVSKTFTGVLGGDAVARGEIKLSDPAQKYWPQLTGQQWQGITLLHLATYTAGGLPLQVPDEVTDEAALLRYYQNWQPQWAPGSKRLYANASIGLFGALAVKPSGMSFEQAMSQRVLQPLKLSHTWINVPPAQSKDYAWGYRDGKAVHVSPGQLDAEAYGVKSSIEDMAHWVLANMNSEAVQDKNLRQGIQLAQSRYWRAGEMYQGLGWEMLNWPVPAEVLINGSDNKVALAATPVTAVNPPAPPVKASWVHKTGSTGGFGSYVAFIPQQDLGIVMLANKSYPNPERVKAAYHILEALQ

YRC-1 = YRC-1 (Yersinia ruckeri, UniProt Q20I87); test: IC50 of β-lactamase inhibitors, crude extract, YRC-1; assay type: biochemical
Chain of YRC-1 (Q20I87 entry or part of it): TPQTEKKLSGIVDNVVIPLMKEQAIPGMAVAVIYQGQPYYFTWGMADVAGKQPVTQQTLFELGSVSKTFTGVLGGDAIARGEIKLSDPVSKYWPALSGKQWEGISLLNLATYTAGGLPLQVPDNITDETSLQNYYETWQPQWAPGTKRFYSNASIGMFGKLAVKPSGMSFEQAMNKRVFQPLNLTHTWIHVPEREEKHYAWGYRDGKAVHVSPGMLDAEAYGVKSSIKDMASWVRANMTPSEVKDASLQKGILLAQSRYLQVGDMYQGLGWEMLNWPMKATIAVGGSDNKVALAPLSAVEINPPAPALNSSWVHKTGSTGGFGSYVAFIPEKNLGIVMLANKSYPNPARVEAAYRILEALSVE

[23] = ATCC25922, E. coli ATCC 25922, β-lactam alone or with inhibitor at fixed conc.: CLA 2 µg/mL, TZB, AVI, REL, NAC, ZID, DUR, TAN 4 µg/mL, VAB, XER, EMT 8 µg/mL, read-out: MICs

| Structure (SMILES) | MIC (E. coli ATCC 25922; [23]) [µg/mL] | MIC [1] [µg/mL] | MIC [2] [µg/mL] | MIC [3] [µg/mL] | MIC [4] [µg/mL] | MIC [5] [µg/mL] | MIC [6] [µg/mL] | MIC [7] [µg/mL] | MIC [8] [µg/mL] | MIC [9] [µg/mL] | MIC [10] [µg/mL] | MIC [12] [µg/mL] | MIC [13] [µg/mL] | MIC [14] [µg/mL] | MIC [15] [µg/mL] | MIC [16] [µg/mL] | MIC [17] [µg/mL] | MIC [18] [µg/mL] | also measured |
| --- | --- | --- | --- | --- | --- | --- | --- | --- | --- | --- | --- | --- | --- | --- | --- | --- | --- | --- | --- |
| CC1(C)S[C@@H]2[C@H](NC(=O)[C@H](N)c3ccc(O)cc3)C(=O)N2[C@H]1C(=O)O [Amoxicillin, amoxicillin] | 4 | 128 | 32 | 1020 | 16 | 16 | 1020 | > 1020 | 128 | 1020 | 512 | 16 | 512 | 8 | 512 | > 1020 | 8 | 512 | MIC (E. coli TOP10 [11]; TOP10, read-out: MICs): 1 µg/mL |
| CC(C)(O/N=C(\C(=O)N[C@@H]1C(=O)N2C(C(=O)[O-])=C(C[n+]3ccccc3)CS[C@H]12)c1csc(N)n1)C(=O)O [Ceftazidime, ceftazidime] | 0.06 | 4 | 32 | 128 | 2 | 0.5 | 64 | > 256 | 4 | > 256 | 8 | 1 | 64 | 0.5 | 32 | > 256 | 8 | 64 | MIC [19]: 256 µg/mL; MIC (E. coli ATCC 25922; ATCC25922, QC strain E. coli ATCC 25922, Table S1, read-out: Minimal Inhibitory Concentrations): 0.06 µg/mL; MIC (E. coli TOP10 [11]; E. coli TOP10, broth microdilution, β-lactam alone or with inhibitor at fixed conc.: CLA 2 µg/mL, TZB, AVI, REL, NAC, ZID, DUR, TAN 4 µg/mL, VAB, XER, EMT 8 µg/mL, read-out: MICs): 0.25 µg/mL; MIC [20]: 2 µg/mL; MIC [21]: 64 µg/mL |
| O=C(O)c1c(F)ccc2c1OB(O)[C@@H]1C[C@H]21 [Xeruborbactam, xeruborbactam] | – | – | – | – | – | – | – | – | – | – | – | – | – | – | – | – | – | – | IC50 (MOX-2): 260 nM; IC50 (ACT-17): 200 nM; IC50 (LAT-1): 340 nM; IC50 (ACT-7): 290 nM; IC50 (PDC-1): 670 nM; IC50 (ADC-50): 5400 nM; IC50 (ADC-50; listed as XER): 5000 nM; IC50 (ACC-1): 90 nM; IC50 (CMY-2): 280 nM; IC50 (SRT-1): 220 nM; IC50 (CMY-42): 430 nM; IC50 (MIR-17): 310 nM; IC50 (PDC-382): 320 nM; IC50 (DHA-1): 160 nM; MIC value of XER alone (E. coli TOP10 [22]): above 16 µg/mL; IC50 (PDC-5): 660 nM; IC50 (FOX-5): 230 nM; IC50 (Ear-1): 220 nM; IC50 (YRC-1): 960 nM |
